Results from patent US20240316130A1 (priority 2023, published 2024).
“Also recorded” adds a separate entry of the source.

What was measured:
B16F10 cells = assay type: cell-based, murine; conditions: 24 hours
A9F1 cells = assay type: cell-based
MYXV = assay: microbe, parasite or virus in culture; assay type: cell-based, myxoma virus

SMILES: NC(=O)NCCC[C@H](N)C(=O)O [citrulline, L-Citrulline]
- rescue of MYXV replication by supplement (B16F10 cells): support myxoma virus replication; also recorded: could also rescue MYXV replication
- rescue of cytostasis by supplement (A9F1 cells): could not be rescued

SMILES: N=C(N)NCCC[C@H](N)C(=O)O [arginine]
- arginine concentration at which maximal viral replication occurs (MYXV): at least 100 μM
- EC50 (MYXV; Myxoma virus, 24 h, read-out: EC50 of exogenous arginine for production of new infectious MYXV progeny): ~50 µM
